The target of the assay is T1, human cannabinoid CB2 receptor (Homo sapiens, UniProt P34972).
T1 construct: expressed in transfected cells; host or cells: Saccharomyces cerevisiae strain MMY23
Briefly: Cannabinoid CB2 receptor agonist activity, yeast reporter assay (FDGlu fluorescence).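 As to Emax: 100% equals maximal response of reference agonist HU210.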 The format is cell-based. The following applies: for Emax: read-out: efficacy value (Emax) at the cloned human cannabinoid CB2 receptor. The method, then: The cannabinoid CB2 receptor agonist activity of the compounds of formula (I) was determined in accordance with the following experimental method.
Yeast (Saccharomyces cerevisiae) cells expressing the human cannabinoid CB2 receptor were generated by integration of an expression cassette into the ura3 chromosomal locus of yeast strain MMY23. This cassette consisted of DNA sequence encoding the human CB2 receptor flanked by the yeast GPD promoter to the 5′ end of CB2 and a yeast transcriptional terminator sequence to the 3′ end of CB2. MMY23 expresses a yeast/mammalian chimeric G-protein alpha subunit in which the C-terminal 5 amino acids of Gpa1 are replaced with the C-terminal 5 amino acids of human Gαi3 (as described in Brown et al. (2000), Yeast 16:11-22). Cells were grown at 30° C. in liquid Synthetic Complete (SC) yeast media (Guthrie and Fink (1991), Methods in Enzymology, Vol. 194) lacking uracil, tryptophan, adenine and leucine to late logarithmic phase (approximately 6 OD600/ml).
Agonists were prepared as 10 mM stocks in DMSO. […] Agonist solutions in DMSO (1% final assay volume) were transferred into black, clear bottom, microtitre plates from NUNC (96- or 384-well). […] This mixture (50 ul per well for 384-well plates, 200 ul per well for 96-well plates) was added to agonist in the assay plates (Multidrop 384, Labsystems). After incubation at 30° C. for 24 hours, fluorescence resulting from degradation of FDGlu to fluorescein due to exoglucanase, an endogenous yeast enzyme produced during agonist-stimulated cell growth, was determined using a Spectrofluor microtitre plate reader (Tecan; excitation wavelength: 485 nm; emission wavelength: 535 nm). Fluorescence was plotted against compound concentration and iteratively curve fitted using a four parameter fit to generate a concentration effect value.
where Max[compound X] and Min[compound X] are the fitted maximum and minimum respectively from the concentration effect curve for compound X, and Max[HU210] and Min[HU210] are the fitted maximum and minimum respectively from the concentration effect curve for (6aR,10aR)-3-(1,1′-Dimethylheptyl)-6a,7,10,10a-tetrahydro-1-hydroxy-6,6-dimethyl-6H-dibenzo[b,d]pyran-9-methanol (HU210; available from Tocris). Equieffective molar ratio (EMR) values were calculated from the equation EMR=EC50 [compound X]/EC50 [HU210]
Where EC50 [compound X] is the EC50 of compound X and EC50 [HU210] is the EC50 of HU210.
(In general: Reporter assays use an easily measured gene product as a stand-in for the process of interest.)

T1 sequence (P34972 whole entry): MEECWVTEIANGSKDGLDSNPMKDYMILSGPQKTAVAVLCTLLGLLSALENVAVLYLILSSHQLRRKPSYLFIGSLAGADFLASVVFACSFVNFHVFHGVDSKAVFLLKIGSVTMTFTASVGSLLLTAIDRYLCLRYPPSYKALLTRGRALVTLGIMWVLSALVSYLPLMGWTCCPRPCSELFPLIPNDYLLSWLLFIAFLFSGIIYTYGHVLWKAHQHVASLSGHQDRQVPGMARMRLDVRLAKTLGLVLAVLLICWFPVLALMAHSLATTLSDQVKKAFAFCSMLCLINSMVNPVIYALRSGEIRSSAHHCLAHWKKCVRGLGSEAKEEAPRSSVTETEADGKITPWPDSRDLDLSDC

The Emax is the maximal effect, on the per cent scale that the assay sets. For `O=C(NCC1CCCCC1)c1cnc(Nc2cccc(Cl)c2)cc1C(F)(F)F` [Example 1, 2-(3-Chlorophenylamino)-4-trifluoromethylpyridine-5-carboxylic acid cyclohexylmethyl amide], the maximum response (Emax) is more than 50%.

One may read the EC50 as the midpoint of the concentration-response curve. Read a low EC50 as an effect from little substance. With `CC(C)c1cc(Nc2cccc(Cl)c2)ncc1C(=O)NCC1CCCCC1` [Example 2, 6-(3-Chlorophenylamino)-N-cyclohexylmethyl-4-isopropylnicotinamide], the EC50 is less than 0.3 µM and the Emax is more than 50%. In the same order, the values of `CC(C)c1cc(Nc2ccc(Cl)c(Cl)c2)ncc1C(=O)NCC1CCCCC1` [Example 3, N-Cyclohexylmethyl-6-(3,4-dichloro-phenylamino)-4-isopropyl-nicotinamide] are less than 0.3 µM and more than 50%. In the same order, the values of `CC(C)c1cc(Nc2ccc(Cl)cc2Cl)ncc1C(=O)NCC1CCCCC1` [Example 5, N-Cyclohexylmethyl-6-(2,4-dichloro-phenylamino)-4-isopropyl-nicotinamide] are less than 0.3 µM and more than 50%. The matching figures for `CC(C)c1cc(Nc2cccc(Cl)c2)ncc1C(=O)NCC1CCC1` [Example 6, 6-(3-Chloro-phenylamino)-N-cyclobutylmethyl-4-isopropyl-nicotinamide]: less than 0.3 µM and more than 50%. For `CC(C)c1cc(Nc2cccc(Cl)c2)ncc1C(=O)NCC1CCOCC1` [Example 7, 6-(3-Chloro-phenyl-amino)-4-isopropyl-N-(tetrahydro-pyran-4-ylmethyl)-nicotinamide], the maximal effect (Emax) is more than 50%.

As for `CC(C)c1cc(Nc2cccc(Br)c2)ncc1C(=O)NCC1CCOCC1` [Example 8, 6-(3-Bromo-phenyl-amino)-4-isopropyl-N-(tetrahydro-pyran-4-ylmethyl)-nicotinamide], the maximal response (Emax) was more than 50%. For `COc1cccc(Nc2cc(C(C)C)c(C(=O)NCC3CCCCC3)cn2)c1` [Example 9, N-Cyclohexylmethyl-4-isopropyl-6-(3-methoxy-phenylamino)-nicotinamide], the EC50 is less than 0.3 µM and the Emax was more than 50%. In the same order, the values of `CC(C)c1cc(Nc2cccc(F)c2)ncc1C(=O)NCC1CCCCC1` [Example 10, N-Cyclohexylmethyl-6-(3-fluoro-phenylamino)-4-isopropyl-nicotinamide] are less than 0.3 µM and more than 50%. The matching figures for `CC(C)c1cc(Nc2cccc(Cl)c2)ncc1C(=O)N1CCOCC1` [Example 11, 1-[6-(3-Chloro-phenylamino)-4-isopropyl-pyridin-3-yl]-1-morpholin-4-yl-methanone]: less than 0.3 µM and more than 50%. The matching figures for `CC(C)c1cc(Nc2cccc(Br)c2)ncc1C(=O)NCC1CCCCC1` [Example 12, 6-(3-Bromo-cyclohexylmethyl-4-phenylamino)-N-isopropyl-nicotinamide]: less than 0.3 µM and more than 50%. As for `Cc1cccc(Nc2cc(C(C)C)c(C(=O)NCC3CCCCC3)cn2)c1` [Example 13, N-Cyclohexylmethyl-4-isopropyl-6-m-tolytamino-nicotinamide], the EC50 was less than 0.3 µM and the Emax was more than 50%. The matching figures for `CC(C)c1cc(Nc2cccc(C(F)(F)F)c2)ncc1C(=O)NCC1CCCCC1` [Example 14, N-Cyclohexylmethyl-4-isopropyl-6-(3-trifluoromethyl-phenylamino)-nicotinamide]: less than 0.3 µM and more than 50%. As for `CC(C)c1cc(Nc2cccc(OC(F)(F)F)c2)ncc1C(=O)NCC1CCCCC1` [Example 15, N-Cyclohexylmethyl-4-isopropyl-6-(3-trifluoromethoxy-phenylamino)-nicotinamide], the half-maximal effective concentration (EC50) is less than 0.3 µM and the Emax was more than 50%. In the same order, the values of `CC(C)c1cc(Nc2cccc(Cl)c2Cl)ncc1C(=O)NCC1CCOCC1` [Example 16, 6-(2,3-Dichloro-phenylamino)-4-isopropyl-N-(tetrahydro-pyran-4-ylmethyl)-nicotinamide] are less than 0.3 µM and more than 50%. With `CC(C)c1cc(Nc2ccc(Cl)cc2Cl)ncc1C(=O)NCC1CCOCC1` [Example 17, 6-(2,4-Dichloro-phenylamino)-4-isopropyl-N-(tetrahydro-pyran-4-ylmethyl)-nicotinamide], the maximal effect (Emax) was more than 50%. In the case of `CC(C)c1cc(Nc2ccc(Cl)c(Cl)c2)ncc1C(=O)NCC1CCOCC1` [Example 18, 6-(3,4-Dichloro-phenylamino)-4-isopropyl-N-(tetrahydro-pyran-4-ylmethyl)-nicotinamide], the EC50 was less than 0.3 µM and the maximal effect (Emax) is more than 50%. As to `CC(C)c1cc(Nc2cccc(C(F)(F)F)c2)ncc1C(=O)NCC1CCOCC1` [Example 19, 4-Isopropyl-N-(tetrahydro-pyran-4-ylmethyl)-6-(3-trifluoromethyl-phenylamino) nicotinamide], the concentration for a half-maximal effect (EC50) is less than 0.3 µM and the maximal response (Emax) is more than 50%.

Consider `CC(C)c1cc(Nc2cccc(OC(F)(F)F)c2)ncc1C(=O)NCC1CCOCC1` [Example 20, 4-Isopropyl-N-(tetrahydro-pyran-4-ylmethyl)-6-(3-trifluoromethoxy-phenylamino) nicotinamide], for which the EC50 was less than 0.3 µM and the Emax was more than 50%. With `CC(C)c1cc(Nc2cccc(Cl)c2)ncc1C(=O)NCC1CCCC1` [Example 21, 6-[(3-Chloro-phenyl)amino]-N-(cyclopentylmethyl)-4-isopropyl-nicotinamide], the Emax is more than 50%. As for `CC(C)c1cc(Nc2cccc(F)c2)ncc1C(=O)NCC1CCCC1` [Example 22, N-Cyclopentylmethyl-6-(3-fluorophenylamino)-4-isopropyl-nicotinamide], the EC50 is less than 0.3 µM and the maximum response (Emax) is more than 50%.

On to `CC(C)c1cc(Nc2cccc(C(F)(F)F)c2)ncc1C(=O)NCC1CCCC1` [Example 23, N-Cyclopentylmethyl-4-isopropyl-6-(3-trifluoromethyl-phenylamino)-nicotinamide], for which the concentration for a half-maximal effect (EC50) is less than 0.3 µM and the Emax was more than 50%. The matching figures for `Cc1cccc(Nc2cc(C(C)C)c(C(=O)NCC3CCCC3)cn2)c1` [Example 24, N-Cyclopentylmethyl-4-isopropyl-6-m-tolylamino-nicotinamide]: less than 0.3 µM and more than 50%.

Consider `CC(C)c1cc(Nc2cccc(OC(F)(F)F)c2)ncc1C(=O)NCC1CCCC1` [Example 25, N-Cyclopentylmethyl-4-isopropyl-6-(3-trifluoromethoxy-phenylamino)-nicotinamide], for which the half-maximal effective concentration (EC50) is less than 0.3 µM and the Emax was more than 50%. With `CC(C)c1cc(Nc2cccc(Br)c2)ncc1C(=O)NCC1CCCC1` [Example 26, 6-(3-Bromophenylamino)-N-cyclopentylmethyl-4-isopropyl-nicotinamide], the EC50 was less than 0.3 µM and the maximal response (Emax) was more than 50%.

With `COc1cccc(Nc2cc(C(C)C)c(C(=O)NCC3CCCC3)cn2)c1` [Example 27, N-Cyctopentylmethyl-4-isopropyl-6-(3-methoxyphenylamino) nicotinamide], the EC50 was less than 0.3 µM and the maximum response (Emax) was more than 50%. The matching figures for `CC(C)c1cc(Nc2cccc(C#N)c2)ncc1C(=O)NCC1CCCC1` [Example 28, 6-(3-Cyano-phenylamino)-N-cyclopentylmethyl-4-isopropyl-nicotinamide]: less than 0.3 µM and more than 50%. For the compound `CC(C)c1cc(Nc2ccc(F)cc2Cl)ncc1C(=O)NCC1CCCC1` [Example 29, 6-(2-Chloro-4-fluoro-phenylamino)-N-cyclopentylmethyl-4-isopropyl-nicotinamide], the half-maximal effective concentration (EC50) was less than 0.3 µM and the Emax was more than 50%. In the same order, the values of `CC(C)c1cc(Nc2ccc(C#N)cc2Cl)ncc1C(=O)NCC1CCCC1` [Example 30, 6-(2-Chloro-4-cyano-phenylamino)-N-cyclopentylmethyl-4-isopropyl-nicotinamide] are less than 0.3 µM and more than 50%. In the same order, the values of `CC(C)c1cc(Nc2ccc(Cl)cc2Cl)ncc1C(=O)NCC1CCCC1` [Example 31] are less than 0.3 µM and more than 50%. Regarding `CC(C)c1cc(Nc2ccc(Cl)c(Cl)c2)ncc1C(=O)NCC1CCCC1` [Example 32], the EC50 is less than 0.3 µM and the Emax was more than 50%. In the same order, the values of `CC(C)c1cc(Nc2cccc(Br)c2)ncc1C(=O)NCC1CCC1` [Example 33, 6-(3-Bromo-phenylamino)-N-cyclobutylmethyl-4-isopropyl-nicotinamide] are less than 0.3 µM and more than 50%.

Source of the values: patent US20060240048A1 (priority 2002, published 2006).
